Test results reported in patent US4089965A, “Thiazolylphenylguanidines as antirhinovirus agents” (American Cyanamid Company, priority 1977, dated 1978).
Converted amounts (≈) assume the structure as drawn.

What was measured:
Assay type in all cases: cell-based
[1] = test system: Poliovirus Type 1; experiment: microbe, parasite or virus in culture; conditions: Enterovirus C, HeLa, read-out: Minimal Inhibitory Concentration
[2] = test system: Rhinovirus Serotype 23; experiment: Plaque assay, minimal inhibitory concentration; conditions: Enterovirus, inhibiting virus plaque formation by 50%
[3] = test system: Rhinovirus Serotype 1A; experiment: Plaque assay, minimal inhibitory concentration; conditions: Enterovirus; HeLa Cells; inhibiting virus plaque formation by 50%
[4] = test system: Coxsackievirus B-5; experiment: Plaque assay, minimal inhibitory concentration; conditions: HeLa Cells, inhibiting virus plaque formation by 50%

Compound: N=C(Nc1ccccc1)Nc1nc(-c2ccccc2)cs1 [1-(4-phenyl-2-thiazolyl)-3-phenylguanidine]
- IC50 [1]: 0.8 µg/mL (≈ 2.72 µM)
- IC50 ([2]; L132, L-132 Cells): 0.4 to 0.8 µg/mL (≈ 1.36 to 2.72 µM)
- IC50 ([2]; HeLa Cells): 0.2 to 0.4 µg/mL (≈ 0.679 to 1.36 µM)
- IC50 [3]: 0.2 to 0.4 µg/mL (≈ 0.679 to 1.36 µM)
- IC50 [4]: 0.8 to 1.6 µg/mL (≈ 2.72 to 5.44 µM)
